Measured values reported in patent publication US12338220B2, “Antiviral pyrazolopiridinone compounds” (Novartis AG, priority 2019, dated 2025).
Where two headings read alike, the source gives them in different places.

Legend:
CMV = assay: microbe, parasite or virus in culture; assay type: cell-based; settings: Human betaherpesvirus 5, 72 h, read-out: CMV-Luc Cellular EC50, NN-NHDF cells, MOI 1, 72 hrs
CMV-polymerase = CMV-polymerase (Human cytomegalovirus (strain AD169) (HHV-5) (Human herpesvirus 5), UniProt P08546); assay: biochemical
[1] = read-out: CMV-polymerase Biochemical IC50
[2] = CMV-polymerase Biochemical IC50

Row | Structure (SMILES) | EC50 (CMV) [nM] | IC50 (CMV-polymerase; [1]) [nM] | IC50 (CMV-polymerase; [2]) [nM]
1 | Cn1nc(C(=O)NCc2ccc(C#N)c(F)c2)c2c1C(=O)N(CC1(S(C)(=O)=O)CC1)CC2 [Example 23, N-(4-Cyano-3-fluorobenzyl)-1-methyl-6-((1-(methylsulfonyl)cyclopropyl)methyl)-7-oxo-4,5,6,7-tetrahydro-1H-pyrazolo[3,4-c]pyridine-3-carboxamide] | 86 | 7 | 
2 | Cn1nc(C(=O)COc2ccc(C#N)cc2)c2c1C(=O)N(CC1(S(=O)(=O)C3CC3)CC1)CC2 [Example 25, 4-(2-(6-((1-(Cyclopropylsulfonyl)cyclopropyl)methyl)-1-methyl-7-oxo-4,5,6,7-tetrahydro-1H-pyrazolo[3,4-c]pyridin-3-yl)-2-oxoethoxy)benzonitrile] | 30 |  | 2
3 | Cn1nc(-c2nnc(Cc3ccc(C#N)cc3)o2)c2c1C(=O)N(CC1(S(=O)(=O)C3CC3)CC1)CC2 [Example 26, 4-((5-(6-((1-(Cyclopropylsulfonyl)cyclopropyl)methyl)-1-methyl-7-oxo-4,5,6,7-tetrahydro-1H-pyrazolo[3,4-c]pyridin-3-yl)-1,3,4-oxadiazol-2-yl)methyl)benzonitrile] | 761 |  | 52
4 | Cn1nc(-c2nc(Cc3ccc(C#N)cc3)no2)c2c1C(=O)N(CC1(S(=O)(=O)C3CC3)CC1)CC2 [Example 27, 4-((5-(6-((1-(Cyclopropylsulfonyl)cyclopropyl)methyl)-1-methyl-7-oxo-4,5,6,7-tetrahydro-1H-pyrazolo[3,4-c]pyridin-3-yl)-1,2,4-oxadiazol-3-yl)methyl)benzonitrile] | 211 | 7 | 
5 | Cn1nc(-c2noc(Cc3ccc(C#N)cc3)n2)c2c1C(=O)N(CC1(S(=O)(=O)C3CC3)CC1)CC2 [Example 28, 4-((3-(6-((1-(Cyclopropylsulfonyl)cyclopropyl)methyl)-1-methyl-7-oxo-4,5,6,7-tetrahydro-1H-pyrazolo[3,4-c]pyridin-3-yl)-1,2,4-oxadiazol-5-yl)methyl)benzonitrile] | 24 |  | 1
6 | Cn1nc(-c2nnn(Cc3ccc(C#N)cc3)n2)c2c1C(=O)N(CC1(S(=O)(=O)C3CC3)CC1)CC2 [Example 29, 4-((5-(6-((1-(Cyclopropylsulfonyl)cyclopropyl)methyl)-1-methyl-7-oxo-4,5,6,7-tetrahydro-1H-pyrazolo[3,4-c]pyridin-3-yl)-2H-tetrazol-2-yl)methyl)benzonitrile] | 80 | 1 | 
7 | Cn1nc(-c2nnnn2Cc2ccc(C#N)cc2)c2c1C(=O)N(CC1(S(=O)(=O)C3CC3)CC1)CC2 [Example 30, 4-((5-(6-((1-(cyclopropylsulfonyl)cyclopropyl)methyl)-1-methyl-7-oxo-4,5,6,7-tetrahydro-1H-pyrazolo[3,4-c]pyridin-3-yl)-1H-tetrazol-1-yl)methyl)benzonitrile] | > 10000 | 940 | 
8 | Cn1nc(C2=NOC(c3ccc(C#N)cc3)C2)c2c1C(=O)N(CC1(S(=O)(=O)C3CC3)CC1)CC2 (stereo not drawn) [Example 31, 4-(3-(6-((1-(Cyclopropylsulfonyl)cyclopropyl)methyl)-1-methyl-7-oxo-4,5,6,7-tetrahydro-1H-pyrazolo[3,4-c]pyridin-3-yl)-4,5-dihydroisoxazol-5-yl)benzonitrile] | 101 |  | 12
9 | Cn1nc(-c2cc(Cc3ccc(C#N)cc3)on2)c2c1C(=O)N(CC1(S(=O)(=O)C3CC3)CC1)CC2 [Example 34, 4-((3-(6-((1-(Cyclopropylsulfonyl)cyclopropyl)methyl)-1-methyl-7-oxo-4,5,6,7-tetrahydro-1H-pyrazolo[3,4-c]pyridin-3-yl)isoxazol-5-yl)methyl)benzonitrile] | 10 |  | 1
10 | Cn1nc(-c2cn(Cc3ccc(C#N)cc3)nn2)c2c1C(=O)N(CC1(S(=O)(=O)C3CC3)CC1)CC2 [Example 35, 4-((4-(6-((1-(Cyclopropylsulfonyl)cyclopropyl)methyl)-1-methyl-7-oxo-4,5,6,7-tetrahydro-1H-pyrazolo[3,4-c]pyridin-3-yl)-1H-1,2,3-triazol-1-yl)methyl)benzonitrile] | 38 |  | 3
11 | Cn1nc(-c2cn(CC3CCC(F)(F)CC3)nn2)c2c1C(=O)N(CC1(S(=O)(=O)C3CC3)CC1)CC2 [Example 36, 6-((1-(Cyclopropylsulfonyl)cyclopropyl)methyl)-3-(1-((4,4-difluorocyclohexyl)methyl)-1H-1,2,3-triazol-4-yl)-1-methyl-5,6-dihydro-1H-pyrazolo[3,4-c]pyridin-7(4H)-one] | 571 | 5 | 
12 | Cn1nc(C(=O)NOc2ccc(Cl)cc2)c2c1C(=O)N(CC1(S(=O)(=O)C3(C)CC3)CC1)CC2 [Example 37, N-(4-Chlorophenoxy)-1-methyl-6-((1-((1-methylcyclopropyl)sulfonyl)cyclopropyl)methyl)-7-oxo-4,5,6,7-tetrahydro-1H-pyrazolo[3,4-c]pyridine-3-carboxamide] | 105 | 7 | 
13 | Cn1nc(C(=O)NCc2ccc(Cl)cc2)c2c1C(=O)N(CC1(S(=O)(=O)C(F)F)CC1)CC2 [Example 39, N-(4-Chlorobenzyl)-6-((1-((difluoromethyl)sulfonyl)cyclopropyl)methyl)-1-methyl-7-oxo-4,5,6,7-tetrahydro-1H-pyrazolo[3,4-c]pyridine-3-carboxamide] | 376 |  | 25
14 | N#Cc1ccc(CNC(=O)c2nn(C3CC3)c3c2CCN(CC2(S(=O)(=O)C4CC4)CC2)C3=O)cc1 [Example 43, N-(4-Cyanobenzyl)-1-cyclopropyl-6-((1-(cyclopropylsulfonyl)cyclopropyl)methyl)-7-oxo-4,5,6,7-tetrahydro-1H-pyrazolo[3,4-c]pyridine-3-carboxamide] | 66 |  | 2
15 | O=C(NCc1ccc(Cl)cc1)c1n[nH]c2c1CCN(CC1(S(=O)(=O)C3CC3)CC1)C2=O [Example 44, N-(4-Chlorobenzyl)-6-((1-(cyclopropylsulfonyl)cyclopropyl)methyl)-7-oxo-4,5,6,7-tetrahydro-1H-pyrazolo[3,4-c]pyridine-3-carboxamide] | 76 |  | 4
16 | CS(=O)(=O)C1(CN2CCc3c(nn4c3C(=O)N(Cc3ccc(C#N)cc3)CC4)C2=O)CC1 [Example 46, 4-((8-((1-(Methylsulfonyl)cyclopropyl)methyl)-1,7-dioxo-3,4,7,8,9,10-hexahydropyrido[3′,4′:3,4]pyrazolo[1,5-a]pyrazin-2(1H)-yl)methyl)benzonitrile] | 746 |  | 41
17 | N#Cc1ccc(CNC(=O)c2nn(CC3(CO)CC3)c3c2CCN(CC2(S(=O)(=O)C4CC4)CC2)C3=O)cc1 [Example 47, N-(4-Cyanobenzyl)-6-((1-(cyclopropylsulfonyl)cyclopropyl)methyl)-1-((1-(hydroxymethyl)cyclopropyl)methyl)-7-oxo-4,5,6,7-tetrahydro-1H-pyrazolo[3,4-c]pyridine-3-carboxamide] | 42 |  | 2
18 | CS(=O)(=O)C1(CN2CCc3c(C(=O)NCc4ccc(C#N)cc4)nn(CC4(CO)CC4)c3C2=O)CC1 [Example 48, N-(4-Cyanobenzyl)-1-((1-(hydroxymethyl)cyclopropyl)methyl)-6-((1-(methylsulfonyl)cyclopropyl)methyl)-7-oxo-4,5,6,7-tetrahydro-1H-pyrazolo[3,4-c]pyridine-3-carboxamide] | 331 |  | 11
